Source: patent publication US20250214991A1 (Oncopia Therapeutics, Inc. d/b/a/ SK Life Science Labs, priority 2022, published 2025)

What was measured:
CRBN/DDB1 = CRBN/DDB1 (Homo sapiens (Human), UniProt Q96SW2); test: IC50 measurements for binding to CRBN/DDB1 (HTRF); conditions: His tagged CRBN+DDB, Cy5-labeled Thalidomide probe, one hour
Method: In vitro Assay: IC50 Measurements for binding to CRBN/DDB1 (Table E1)
The binding potency was determined using HTRF assay technology (Perkin Elmer). Compounds were serially diluted in DMSO and 0.2 μL volume was transferred to white 384-well plate. The reaction was conducted in total volume of 20 μL with addition of 2 nM His tagged CRBN+DDB−DLS7+CXU4 (Wuxi, catalogue #RP210521GA) to compounds followed by addition of 60 nM Fluorescent probe Cy5-labeled Thalidomide (Tenova Pharma, catalogue #T52461), and 0.4 nM of MAb Anti-6HIS Tb cryptate Gold (Cisbio, catalogue #61HI2TLA in the assay buffer (50 mM HEPES pH 7.5, 1 mM TCEP, 0.01% Brij-35, 50 mM NaCl, and 0.1% BSA). After one hour incubation at room temperature, the HTRF signals were read on Envision reader (Perkin Elemer). Data was analyzed using XLfit using four parameters dose response curve to determine IC50s. A: IC50<0.1 μM; B: 0.1 μM<IC50<[…]; C: 0.5 μM<IC50<1 μM; D: 1 μM<IC50<5 μM; E: 5 μM<IC50<10 μM

IKZF2 = IKZF2 (Homo sapiens (Human), UniProt Q96SW2+Q9UKS7); test: In vitro IKZF2 HiBit Assay (HEK293T Flp-in-HiBiT cells); assay type: cell-based; conditions: HEK293T Flp-in-HiBiT cells, 6 hrs incubation; for DC50: read-out: IKZF2 HiBit DC50; for Dmax: HEK-293T, read-out: IKZF2 HiBit Dmax (%)
Procedure, shortened: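 Remaining tagged Helios was read as lytic HiBiT/LgBiT luminescence normalized to DMSO, yielding binned DC50 and Dmax values. Treatment ran 6 h, with compounds at 11 three-fold doses diluted from 1 mM and 0.1% final DMSO. The cells were HEK293T Flp-in with CRISPR knock-in of HiBiT at the IKZF2 N-terminus.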

IKZF1 = IKZF1 (Homo sapiens (Human), UniProt Q13422+Q96SW2); test: In vitro IKZF1 HiBit Assay (HEK293T Flp-in-HiBiT-IKZF1 stable cell line); assay type: cell-based; conditions: HEK293T Flp-in-HiBiT-IKZF1 stable cell line, 6 hrs incubation; for DC50: read-out: IKZF1 HiBit DC50; for Dmax: HEK-293T, read-out: IKZF1 HiBit Dmax (%)
Procedure, shortened: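 Degradation was measured as loss of luminescence from the HiBiT-IKZF1 tag after 6 h compound treatment, with 0.1% final DMSO, in stable HEK293T Flp-in cells. Values were normalized to DMSO, giving the 50% degradation concentration and the maximal degradation range.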

Sequence of IKZF2 (Q9UKS7 whole entry): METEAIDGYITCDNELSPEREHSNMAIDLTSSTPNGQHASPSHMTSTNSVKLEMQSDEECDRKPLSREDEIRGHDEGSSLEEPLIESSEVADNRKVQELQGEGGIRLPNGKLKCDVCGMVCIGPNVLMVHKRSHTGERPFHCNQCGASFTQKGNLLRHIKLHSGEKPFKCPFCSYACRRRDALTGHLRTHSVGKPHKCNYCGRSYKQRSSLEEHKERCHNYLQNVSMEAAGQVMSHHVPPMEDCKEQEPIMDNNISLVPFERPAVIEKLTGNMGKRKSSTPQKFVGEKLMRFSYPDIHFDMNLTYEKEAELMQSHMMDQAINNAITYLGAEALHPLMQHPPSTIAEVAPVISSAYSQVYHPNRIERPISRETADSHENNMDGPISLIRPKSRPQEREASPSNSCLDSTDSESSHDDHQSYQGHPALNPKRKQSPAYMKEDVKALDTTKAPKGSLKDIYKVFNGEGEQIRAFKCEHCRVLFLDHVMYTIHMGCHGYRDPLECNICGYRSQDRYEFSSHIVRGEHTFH
Sequence of IKZF2 (Q96SW2 whole entry): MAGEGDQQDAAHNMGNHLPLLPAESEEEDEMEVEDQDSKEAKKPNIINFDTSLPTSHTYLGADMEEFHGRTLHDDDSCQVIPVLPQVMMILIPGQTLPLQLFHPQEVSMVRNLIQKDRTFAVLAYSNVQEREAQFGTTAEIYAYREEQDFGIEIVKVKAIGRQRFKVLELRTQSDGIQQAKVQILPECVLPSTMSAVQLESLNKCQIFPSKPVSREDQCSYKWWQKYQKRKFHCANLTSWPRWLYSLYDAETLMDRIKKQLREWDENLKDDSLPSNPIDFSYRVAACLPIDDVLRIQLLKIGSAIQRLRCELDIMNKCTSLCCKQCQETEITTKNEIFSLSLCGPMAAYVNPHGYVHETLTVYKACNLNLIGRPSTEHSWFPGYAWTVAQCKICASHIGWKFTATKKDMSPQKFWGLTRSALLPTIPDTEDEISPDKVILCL
Sequence of IKZF2 (Q16531 2-1140 partner): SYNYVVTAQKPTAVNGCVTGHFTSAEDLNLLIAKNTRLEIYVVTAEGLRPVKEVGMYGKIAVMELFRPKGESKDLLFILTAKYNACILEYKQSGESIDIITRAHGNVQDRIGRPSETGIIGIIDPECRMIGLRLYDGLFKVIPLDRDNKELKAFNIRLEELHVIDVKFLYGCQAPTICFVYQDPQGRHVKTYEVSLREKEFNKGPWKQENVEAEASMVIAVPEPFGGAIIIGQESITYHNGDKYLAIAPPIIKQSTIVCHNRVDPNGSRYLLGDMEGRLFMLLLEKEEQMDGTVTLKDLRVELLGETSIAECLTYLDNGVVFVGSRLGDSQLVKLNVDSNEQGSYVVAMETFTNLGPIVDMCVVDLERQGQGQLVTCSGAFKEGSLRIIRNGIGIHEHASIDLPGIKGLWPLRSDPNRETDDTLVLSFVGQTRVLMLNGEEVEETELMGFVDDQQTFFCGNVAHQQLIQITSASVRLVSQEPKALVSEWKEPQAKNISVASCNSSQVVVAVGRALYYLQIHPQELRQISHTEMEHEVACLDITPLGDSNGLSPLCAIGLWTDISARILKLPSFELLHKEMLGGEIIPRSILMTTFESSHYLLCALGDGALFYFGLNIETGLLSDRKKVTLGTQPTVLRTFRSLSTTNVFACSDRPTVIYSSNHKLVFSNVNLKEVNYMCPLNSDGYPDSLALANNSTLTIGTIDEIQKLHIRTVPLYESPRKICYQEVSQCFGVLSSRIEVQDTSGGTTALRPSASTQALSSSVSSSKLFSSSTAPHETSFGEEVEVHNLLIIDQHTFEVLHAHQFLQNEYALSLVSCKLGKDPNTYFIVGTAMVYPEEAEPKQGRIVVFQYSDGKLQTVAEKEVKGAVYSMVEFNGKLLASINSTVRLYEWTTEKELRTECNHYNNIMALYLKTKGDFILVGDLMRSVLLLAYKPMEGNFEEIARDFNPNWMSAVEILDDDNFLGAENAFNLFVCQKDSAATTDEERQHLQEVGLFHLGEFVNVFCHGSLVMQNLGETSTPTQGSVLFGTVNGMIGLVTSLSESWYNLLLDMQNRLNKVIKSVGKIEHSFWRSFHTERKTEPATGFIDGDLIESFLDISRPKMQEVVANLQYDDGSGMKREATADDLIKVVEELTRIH
Sequence of CRBN/DDB1 (Q96SW2 whole entry, species assumed): as the sequence (Q96SW2 whole entry) above
Sequence of CRBN/DDB1 (Q16531 whole entry partner, species assumed): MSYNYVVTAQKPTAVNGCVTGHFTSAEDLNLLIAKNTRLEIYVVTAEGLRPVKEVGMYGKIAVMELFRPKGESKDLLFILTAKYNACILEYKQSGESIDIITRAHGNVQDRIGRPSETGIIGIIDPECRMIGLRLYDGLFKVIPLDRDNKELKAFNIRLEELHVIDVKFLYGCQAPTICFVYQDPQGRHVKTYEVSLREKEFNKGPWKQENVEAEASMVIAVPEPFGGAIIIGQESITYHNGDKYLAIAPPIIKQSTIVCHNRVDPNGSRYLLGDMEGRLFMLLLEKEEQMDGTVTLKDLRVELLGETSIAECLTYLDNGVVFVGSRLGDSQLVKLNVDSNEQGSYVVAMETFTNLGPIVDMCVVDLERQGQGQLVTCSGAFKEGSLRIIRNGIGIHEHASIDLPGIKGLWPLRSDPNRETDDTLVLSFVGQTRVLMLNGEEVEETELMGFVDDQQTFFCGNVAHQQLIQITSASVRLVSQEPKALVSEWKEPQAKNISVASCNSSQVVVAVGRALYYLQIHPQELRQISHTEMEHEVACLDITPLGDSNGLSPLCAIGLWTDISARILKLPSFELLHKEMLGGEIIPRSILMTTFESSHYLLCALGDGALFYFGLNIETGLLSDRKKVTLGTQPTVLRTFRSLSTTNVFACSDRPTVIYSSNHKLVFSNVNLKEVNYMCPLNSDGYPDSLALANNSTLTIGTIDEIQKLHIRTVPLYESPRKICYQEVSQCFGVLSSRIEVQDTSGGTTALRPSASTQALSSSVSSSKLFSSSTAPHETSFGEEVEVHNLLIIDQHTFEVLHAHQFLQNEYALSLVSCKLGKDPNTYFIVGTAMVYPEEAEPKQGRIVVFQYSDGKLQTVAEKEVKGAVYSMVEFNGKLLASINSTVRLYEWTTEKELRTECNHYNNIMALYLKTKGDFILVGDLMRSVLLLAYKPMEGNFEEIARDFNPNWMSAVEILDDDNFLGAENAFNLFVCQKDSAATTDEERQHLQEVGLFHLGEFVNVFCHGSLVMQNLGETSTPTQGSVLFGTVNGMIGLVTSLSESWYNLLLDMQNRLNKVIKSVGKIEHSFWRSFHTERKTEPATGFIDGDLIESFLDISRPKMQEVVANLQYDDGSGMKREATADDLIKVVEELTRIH
Sequence of IKZF1 (Q13422 whole entry): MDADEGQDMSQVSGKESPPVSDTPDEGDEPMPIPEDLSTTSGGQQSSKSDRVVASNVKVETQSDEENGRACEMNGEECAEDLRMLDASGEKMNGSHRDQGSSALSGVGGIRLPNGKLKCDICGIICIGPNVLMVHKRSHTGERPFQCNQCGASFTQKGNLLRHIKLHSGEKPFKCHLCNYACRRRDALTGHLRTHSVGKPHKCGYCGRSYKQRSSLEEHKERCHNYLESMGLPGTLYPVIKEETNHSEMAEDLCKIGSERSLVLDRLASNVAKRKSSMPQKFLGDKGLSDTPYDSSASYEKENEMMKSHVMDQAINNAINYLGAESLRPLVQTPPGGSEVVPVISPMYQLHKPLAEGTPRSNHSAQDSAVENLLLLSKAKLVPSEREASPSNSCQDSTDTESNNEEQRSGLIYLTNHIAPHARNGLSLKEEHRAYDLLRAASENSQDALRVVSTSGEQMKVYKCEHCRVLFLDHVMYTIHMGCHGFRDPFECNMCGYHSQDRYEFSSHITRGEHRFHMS
Sequence of IKZF1 (Q96SW2 whole entry): as the sequence (Q96SW2 whole entry) above
Sequence of IKZF1 (Q16531 2-1140 partner): as the sequence (Q16531 2-1140 partner) above

Structure (SMILES)	IC50 (CRBN/DDB1)	DC50 (IKZF2)	Dmax (IKZF2)	DC50 (IKZF1)	Dmax (IKZF1)
COC1CCN(Cc2cc(-c3ccc4c(c3)CN(C3CCC(=O)NC3=O)C4=O)nc3c2ccn3C)C1 (centres unmarked) [Example 93, 3-(5-(4-((3-methoxypyrrolidin-1-yl)methyl)-1-methyl-1H-pyrrolo[2,3-b]pyridin-6-yl)-1-oxoisoindolin-2-yl) piperidine-2,6-dione]	0.1 to 0.5 µM	< 0.001 µM	> 80%	0.01 to 0.1 µM	20 to 40%
CN(C)C(=O)C1CCN(Cc2cc(-c3ccc4c(c3)CN(C3CCC(=O)NC3=O)C4=O)nc3c2ccn3C)CC1 (centres unmarked) [Example 92, 1-((6-(2-(2,6-dioxopiperidin-3-yl)-1-oxoisoindolin-5-yl)-1-methyl-1H-pyrrolo[2,3-b]pyridin-4-yl)methyl)-N,N-dimethylpiperidine-4-carboxamide]	< 0.1 µM	0.001 to 0.01 µM	> 80%	> 10 µM	< 20%
Cn1ccc2c(CN3CCCC3)cc(-c3ccc4c(c3F)CN(C3CCC(=O)NC3=O)C4=O)nc21 (centres unmarked) [Example 75, 3-(4-fluoro-5-(1-methyl-4-(pyrrolidin-1-ylmethyl)-1H-pyrrolo[2,3-b]pyridin-6-yl)-1-oxoisoindolin-2-yl) piperidine-2,6-dione]	0.1 to 0.5 µM	< 0.001 µM	> 80%	> 10 µM	20 to 40%
O=C1CCC(N2Cc3cc(-c4cc(CN5CCCC5)c5ccn(-c6ccccc6)c5n4)ccc3C2=O)C(=O)N1 (centres unmarked) [Example 139, 3-(1-oxo-5-(1-phenyl-4-(pyrrolidin-1-ylmethyl)-1H-pyrrolo[2,3-b]pyridin-6-yl)isoindolin-2-yl) piperidine-2,6-dione]	0.5 to 1 µM	0.001 to 0.01 µM	60 to 80%	0.01 to 0.1 µM	20 to 40%
Cn1ccc2c(CN3CCC(F)C3)cc(-c3ccc4c(c3)CN(C3CCC(=O)NC3=O)C4=O)nc21 (centres unmarked) [Example 304, 3-(5-(4-((3-fluoropyrrolidin-1-yl)methyl)-1-methyl-1H-pyrrolo[2,3-b]pyridin-6-yl)-1-oxoisoindolin-2-yl) piperidine-2,6-dione]	1 to 5 µM	0.001 to 0.01 µM	> 80%	> 10 µM	< 20%
Cn1ccc2c(CN3CCn4nccc4C3)cc(-c3ccc4c(c3)CN(C3CCC(=O)NC3=O)C4=O)nc21 (centres unmarked) [Example 107, 3-(5-(4-((6,7-dihydropyrazolo[1,5-a]pyrazin-5 (4H)-yl)methyl)-1-methyl-1H-pyrrolo[2,3-b]pyridin-6-yl)-1-oxoisoindolin-2-yl) piperidine-2,6-dione]	0.1 to 0.5 µM	0.01 to 0.1 µM	40 to 60%	> 10 µM	< 20%
O=C1CCC(N2Cc3cc(-c4cc(CN5CCCC5)c5[nH]nc(NC6COC6)c5n4)ccc3C2=O)C(=O)N1 (centres unmarked) [Example 204, 3-(5-(3-(oxetan-3-ylamino)-7-(pyrrolidin-1-ylmethyl)-1H-pyrazolo[4,3-b]pyridin-5-yl)-1-oxoisoindolin-2-yl) piperidine-2,6-dione]	1 to 5 µM	1 to 10 µM	< 20%	> 10 µM	< 20%
Cn1cc2c(CN3CCCC3)cc(-c3ccc4c(c3)CN(C3CCC(=O)NC3=O)C4=O)nc2n1 (centres unmarked) [Example 315, 3-(5-(2-methyl-4-(pyrrolidin-1-ylmethyl)-2H-pyrazolo[3,4-b]pyridin-6-yl)-1-oxoisoindolin-2-yl) piperidine-2,6-dione]	0.1 to 0.5 µM	0.01 to 0.1 µM	> 80%	0.01 to 0.1 µM	20 to 40%
O=C1CCC(N2Cc3cc(-c4cc(CN5CCCC5)c5ncccc5n4)ccc3C2=O)C(=O)N1 (centres unmarked) [Example 104, 3-(1-oxo-5-(4-(pyrrolidin-1-ylmethyl)-1,5-naphthyridin-2-yl)isoindolin-2-yl) piperidine-2,6-dione]	0.5 to 1 µM	0.001 to 0.01 µM	> 80%	> 10 µM	20 to 40%
O=C1CCC(N2Cc3cc(-c4cc(CN5CCCC5)c5ccn(C6CCOCC6)c5n4)ccc3C2=O)C(=O)N1 (centres unmarked) [Example 171, 3-(1-oxo-5-(4-(pyrrolidin-1-ylmethyl)-1-(tetrahydro-2H-pyran-4-yl)-1H-pyrrolo[2,3-b]pyridin-6-yl)isoindolin-2-yl) piperidine-2,6-dione]	0.1 to 0.5 µM	0.001 to 0.01 µM	60 to 80%	> 10 µM	< 20%
O=C1CCC(N2Cc3cc(-c4cc(CN5CCCC5)c5c(n4)NC(=O)C5)ccc3C2=O)C(=O)N1 (centres unmarked) [Example 200, 3-(1-oxo-5-(2-oxo-4-(pyrrolidin-1-ylmethyl)-2,3-dihydro-1H-pyrrolo[2,3-b]pyridin-6-yl)isoindolin-2-yl) piperidine-2,6-dione]	0.1 to 0.5 µM	0.1 to 1 µM	60 to 80%	0.1 to 1 µM	20 to 40%
O=C1CCC(N2Cc3cc(-c4nc(CN5CCCC5)c5ccn(C6CCC6)c5n4)ccc3C2=O)C(=O)N1 (centres unmarked) [Example 217, 3-(5-(7-cyclobutyl-4-(pyrrolidin-1-ylmethyl)-7H-pyrrolo[2,3-d]pyrimidin-2-yl)-1-oxoisoindolin-2-yl) piperidine-2,6-dione]	0.5 to 1 µM	0.001 to 0.01 µM	60 to 80%	> 10 µM	< 20%
CN(C)C1CCN(Cc2cc(-c3ccc4c(c3)CN(C3CCC(=O)NC3=O)C4=O)nc3c2ccn3C2COC2)CC1 (centres unmarked) [Example 190, 3-(5-(4-((4-(dimethylamino)piperidin-1-yl)methyl)-1-(oxetan-3-yl)-1H-pyrrolo[2,3-b]pyridin-6-yl)-1-oxoisoindolin-2-yl) piperidine-2,6-dione]	0.1 to 0.5 µM	0.01 to 0.1 µM	40 to 60%	> 10 µM	< 20%
O=C1CCC(N2Cc3cc(-c4cc(CN5CCC(O)C5)c5ccn(C6CC6)c5n4)ccc3C2=O)C(=O)N1 (centres unmarked) [Example 142, 3-(5-(1-cyclopropyl-4-((3-hydroxypyrrolidin-1-yl)methyl)-1H-pyrrolo[2,3-b]pyridin-6-yl)-1-oxoisoindolin-2-yl) piperidine-2,6-dione]	0.5 to 1 µM	0.001 to 0.01 µM	> 80%	> 10 µM	< 20%
Cn1ccc2c(CN3CCOCC3)cc(-c3ccc4c(c3)CN(C3CCC(=O)NC3=O)C4=O)nc21 (centres unmarked) [Example 58, 3-(5-(1-methyl-4-(morpholinomethyl)-1H-pyrrolo[2,3-b]pyridin-6-yl)-1-oxoisoindolin-2-yl) piperidine-2,6-dione]	0.5 to 1 µM	0.001 to 0.01 µM	60 to 80%	> 10 µM	< 20%
CC(C)n1ccc2c(CN3CCCC3)cc(-c3ccc4c(c3)CN(C3CCC(=O)NC3=O)C4=O)nc21 (centres unmarked) [Example 299, 3-(5-(1-isopropyl-4-(pyrrolidin-1-ylmethyl)-1H-pyrrolo[2,3-b]pyridin-6-yl)-1-oxoisoindolin-2-yl) piperidine-2,6-dione]	0.5 to 1 µM	0.001 to 0.01 µM	60 to 80%	> 10 µM	< 20%
Cn1ccc2c(CN3CCc4ccccc4C3)cc(-c3ccc4c(c3)CN(C3CCC(=O)NC3=O)C4=O)nc21 (centres unmarked) [Example 65, 3-(5-(4-((3,4-dihydroisoquinolin-2 (1H)-yl)methyl)-1-methyl-1H-pyrrolo[2,3-b]pyridin-6-yl)-1-oxoisoindolin-2-yl) piperidine-2,6-dione]	0.1 to 0.5 µM	0.001 to 0.01 µM	> 80%	> 10 µM	20 to 40%
O=C1CCC(N2Cc3cc(-c4cc(CN5CCCC5)c5ccccc5n4)ccc3C2=O)C(=O)N1 (centres unmarked) [Example 78, 3-(1-oxo-5-(4-(pyrrolidin-1-ylmethyl)quinolin-2-yl)isoindolin-2-yl) piperidine-2,6-dione]	0.5 to 1 µM	< 0.001 µM	> 80%	> 10 µM	20 to 40%
Cn1ccc2c(CN3CC4(CCOCC4)C3)cc(-c3ccc4c(c3)CN(C3CCC(=O)NC3=O)C4=O)nc21 (centres unmarked) [Example 100, 3-(5-(4-((7-oxa-2-azaspiro[3.5]nonan-2-yl)methyl)-1-methyl-1H-pyrrolo[2,3-b]pyridin-6-yl)-1-oxoisoindolin-2-yl) piperidine-2,6-dione]	0.1 to 0.5 µM	< 0.001 µM	> 80%	0.01 to 0.1 µM	20 to 40%
